Measurements: patent publication US20240024262A1, “USE OF VALERIC ACID IN PREPARATION OF DRUG FOR PREVENTING AND TREATING DIABETES” (Harbin Medical University, priority 2022, published 2024)

Columns and labels:
[1] = test system: Beta-TC-6 cells; test: EdU-488 cell proliferation test; assay type: cell-based, mouse; conditions: PA alone, or SV 1 mmol/L after PA compared with PA group
From the text: (§1) During the cell testing phase of this example, a cell line of mouse insulinoma islet β cells (Beta-TC-6) and mouse primary islet β cells were purchased from Wuhan Prosser Life Technology Co., Ltd for carrying out relevant experimental researches.
(§2) A cell Counting Kit 8 (CCK-8) is a convenient and reliable method to detect the cell activity. In this example, a BeyoClick™ EdU-488 kit is further used to detect the proliferation level of the cells. EdU (5-ethynyl-2′-deoxyuridine) is a thymidine analog that may replace T to infiltrate replicated DNA molecules in the process of cell proliferation. The replication activity of DNA was detected by specific reaction of EdU and an Apollo® Fluor 488 fluorescent dye, an EdU label was correctly detected, and then proliferation of cells was reflected. In this example, expression of Ki-67 in the cells was detected by immunofluorescence (immunocytochemistry), and apoptosis was analyzed by referring to a one-step TUNEL cell apoptosis detection kit (red fluorescence). Meanwhile, this example used a flow cytometry technology to complete detection of a cell cycle and apoptosis.
(§3) The following drugs are taken as comparative examples: • 1. […]

[2] = test system: mouse primary islet β cells; test: EdU-488 cell proliferation test; assay type: cell-based; conditions: PA alone, or SV 1 mmol/L after PA compared with PA group
From the text: as §1, §2, §3

[3] = test system: Beta-TC-6 cell line; test: TUNEL cell apoptosis detection test; assay type: cell-based, mouse; conditions: PA intervention, then SV intervention
From the text: as §1, §2

[4] = test system: mouse primary islet β cells; test: TUNEL cell apoptosis detection test; assay type: cell-based; conditions: PA intervention, then SV intervention
From the text: as §1, §2

[5] = test system: Beta-TC-6 cells; test: Flow cytometry apoptosis analysis; assay type: cell-based, mouse; conditions: Beta-TC-6, flow cytometry; PA intervention, then SV intervention
From the text: as §2
Sodium valerate SV can weaken PA induced apoptosis to a certain extent (FIG. 17).

[6] = test system: Beta-TC-6 cell line; test: Insulin secretion ability test; assay type: cell-based, mouse; conditions: for secretion levels of the insulin stimulated under a high glucose environment: high sugar (20 mmol/L), after PA intervention
From the text: (§4) Through an insulin secretion ability test, the levels of the insulin produced in each group under concentrations of no sugar, low sugar (2.8 mmol/L) and high sugar (20 mmol/L) are compared.

[7] = test system: mouse primary islet β cells; test: Insulin secretion ability test; assay type: cell-based; conditions: for secretion levels of the insulin stimulated under a high glucose environment: high sugar (20 mmol/L), after PA intervention
From the text: as §4

[8] = test system: Leptin receptor gene deficient db/db mice; test: Type 2 diabetes model db/db mice: food intake, body weight, blood glucose-related indexes; assay type: in vivo; conditions: comparison among groups / vs PBS control group
Procedure: The following drugs are taken as comparative examples: • 1. Comparative example where an existing drug serves as a positive control • (1) High-fat fed C57BL6/J mice • Sodium butyrate gavage intervention group: 75.0 mg/kg • (2) Type 2 diabetes model db/db mice • Sodium butyrate gavage intervention group: 75.0 mg/kg • Harmine gavage intervention group: 10.0 mg/kg • Metformin gavage intervention group: 100.0 mg/kg • (3) Cell line of mouse insulinoma islet β cells (Beta-TC-6) • Sodium butyrate intervention group: 1.0 mmol/L • Harmine intervention group: 10.0 μmmol/L • (4) Mouse islet β primary cell • Sodium butyrate intervention group: 1.0 mmol/L • Harmine intervention group: 10.0 μmmol/L • 2. A control test is taken as a comparative example • (1) High-fat fed C57BL6/J mice • Ordinary feed feeding group, and high-fat feed PBS gavage group • (2) Type 2 diabetes model db/db mice • Control feeding group and PBS gavage group • (3) Cell line of mouse insulinoma islet β cells (Beta-TC-6) • Blank control group, and palmitic acid (PA) intervention negative control group • (4) Mouse islet β primary cell • Blank control group, and PA intervention negative control group • Results are as follows:
(II) In the animal test, the therapeutic effect of the valeric acid on diabetes is observed by using Leptin receptor gene deficient db/db mice (purchased from Nanjing Junke Biotechnology Co., Ltd.) as test subjects.

SMILES	proportion of EdU (+) cells [1]	proportion of EdU (+) cells [2]	proportion of apoptotic cells (TUNEL) [3]	proportion of apoptotic cells (TUNEL) [4]	proportion of apoptotic cells, Q2 quadrant (late apoptosis) and Q3 quadrant (early apoptosis) [5]	secretion levels of the insulin stimulated under a high glucose environment [6]	secretion levels of the insulin stimulated under a high glucose environment ([6]; listed as SV)	secretion levels of the insulin stimulated under a high glucose environment [7]	secretion levels of the insulin stimulated under a high glucose environment ([7]; listed as SV)	secretion ability of the insulin ([6]; PA intervention)	secretion ability of the insulin ([7]; PA intervention)	insulin secretion [8]
CCCCC(=O)[O-].[Na+] [sodium valerate]	increased significantly	increased significantly	slightly decreased	slightly decreased	decreased significantly	more significant	significantly increased	more significant	significantly increased			
CCCCCCCCCCCCCCCC(=O)O [PA, palmitic acid, reference compound]	decreased significantly	decreased significantly	increased significantly	increased significantly	increased significantly					decreased significantly	decreased significantly	
CCCC(=O)[O-].[Na+] [Sb, sodium butyrate]						significantly increased		significantly increased				
COc1ccc2c(c1)[nH]c1c(C)nccc12 [Harmine]						significantly increased		significantly increased				
CN(C)C(=N)N=C(N)N [metformin, reference compound]												basically no difference
